Entries after “also recorded” stand apart in the source; their conditions may differ.
Assays:
cotton fibers = experiment: In vitro cotton ovule culture, fiber growth (fiber length); type: cell-based, Gossypium hirsutum; conditions: for increase in average fiber length: by 7 dpa; for block of promotion of fiber growth by 30 μM ATPγS and ADPβS: co-applied with 30 μM nucleotide, 7 dpa; for reversal of the effects of high concentrations of ATPγS and ADPβS on fiber growth: co-applied with 150 μM ATPγS or ADPβS; for block of both the inhibition and stimulation of fiber growth by ATPγS and ADPβS: summary statement
Description: In Vitro Ovule Culture. Cotton bolls were harvested within 24 hours of flower opening, 1-DPA, and all petals bracts, and sepals were removed. All collected cotton bolls were used within 24 hours of original harvest. If the bolls were not used immediately they were stored in a 4° C. refrigerator until ready for use. For sterilization, bolls were dropped into an 85% ethanol solution for at least 30 seconds but not more than two minutes and then removed with forceps. The excess ethanol was shaken off and the boll was passed through a flame until the residual ethanol was burned off. Ovules were then excised and placed in 10 mL of BT Cotton Media cell culture (Caisson Laboratories, Inc., North Logan, Utah, USA)+5.0 μM IAA and 0.5 μM GA3 (Sigma, St. Louis, Mo., USA) hormone solution, final concentration, in 60×15 mm Petri dishes and were then wrapped in Milli Wrap (Millipore Corporation, Bedford, Mass.). Twelve to 16 cotton ovules were placed into their respective Petri dishes and incubated with nucleotides, inhibitors, antibody serum or a combination of these at specified concentrations and were cultured at 32° C. in the dark without agitation. To facilitate combing of the cultured ovules, ovules were placed in a 75% ethanol solution for 15 minutes and then taken out to be combed. Fiber lengths were measured manually with a dissecting microscope after laying the ovule on its side and combing the fiber cells away from the ovule with forceps and dissecting probe.
In Vitro Cotton Ovule Culture Treatments. For studies testing the effects of apyrase inhibitors on cotton fiber growth, the inhibitors (NGXT191 and AI #4, both at 2.5 mg/mL), were dissolved in dimethyl sulfoxide and then applied to Cotton Media cell culture at 3 and 5 DPA after the introduction of cotton ovules to the media. For experiments testing the effects of apyrase antibodies on cotton fiber growth, apyrase antibodies were applied to Cotton Media cell culture at 3 and 5 DPA after the introduction of cotton ovules in the appropriate amounts. For experiments testing the effects of applying nucleotides during cotton fiber growth, various concentrations of ATPγS, ADPβS, and AMP (Sigma-Aldrich, Inc., St. Louis, Mo., USA) were added to Cotton Media cell culture at 5 DPA after the introduction of cotton ovules in the appropriate amounts. All nucleotides were made into 50 mM stocks dissolved in de-ionized water and kept at −20° C. while not in use. The inhibitor stocks were stored at ˜20° C. while not in use. For experiments testing the effects of P2-receptor antagonists, the antagonists (PPADS and Adenosine, stocks at 50 mM) were dissolved in de-ionized water and then applied to Cotton Media cell culture at 3 and 5 DPA for inhibitor and antibody experiments and 5 DPA for applied nucleotide experiments. The antagonists stocks were stored at ˜20° C. while not in use (Sigma-Aldrich, Inc., St. Louis, Mo., USA). The ethylene inhibitor (S)-trans-2-Amino-4-(2-aminoethoxy)-3-butenoic acid hydrochloride (Sigma-Aldrich, Inc., St. Louis, Mo., USA) (AVG, stock at 50 mM) was dissolved in de-ionized water and then applied to Cotton Media cell culture at 5 DPA. The production of the Arabidopsis anti-APY1 and APY2 antibodies used is described by Steinebrunner et al. (2003). The crude immune and pre-immune sera were purified using protein A-sepharose following the protocol described by Martin et al. (1982) with the slight modification that the buffers used were azide-free. Bio-rad assay was used to determine that the concentration of the immune serum and pre-immune serum which was 0.46 μg/mL and 0.3 μg/mL, respectively.

apyrase activity = experiment: ATP level in the medium outside growing cotton fibers in ovule culture; type: cell-based, Gossypium hirsutum; conditions: highest concentration of inhibitor, versus control level of 330 nM
Description: Apyrase inhibitors and anti-apyrase antibodies inhibit fiber elongation. In order to test whether apyrase activity is important during cotton fiber growth we applied varying concentrations of two different chemical apyrase inhibitors, apyrase inhibitor 4 and NGXT191, to cotton ovule cultures at 3 dpa and 5 dpa. […] There is clearly a dose-dependent effect, and the effects at each dosage are statistically significant. […] The level of inhibition increased with increasing concentrations of both inhibitors. Next when PPADS, an inhibitor of animal purinoceptors, was tested, it could block the 40% inhibition of fiber growth caused by application of the highest concentration of apyrase inhibitors. […] Application of the highest concentration of inhibitors NGXT191 and 4 caused a 2.1-fold and 3.2-fold increase in ATP levels, respectively.
In Vitro Ovule Culture. Cotton bolls were harvested within 24 hours of flower opening, 1-DPA, and all petals bracts, and sepals were removed. All collected cotton bolls were used within 24 hours of original harvest. If the bolls were not used immediately they were stored in a 4° C. refrigerator until ready for use. […] Fiber lengths were measured manually with a dissecting microscope after laying the ovule on its side and combing the fiber cells away from the ovule with forceps and dissecting probe. […]

Row | Compound | increase in average fiber length (cotton fibers; 30 μM) [%] | effect on fiber growth (cotton fibers; 150 μM, at 7 dpa) | block of promotion of fiber growth by 30 μM ATPγS and ADPβS (cotton fibers) | reversal of the effects of high concentrations of ATPγS and ADPβS on fiber growth (cotton fibers) | block of both the inhibition and stimulation of fiber growth by ATPγS and ADPβS (cotton fibers) | further results
1 | Nc1ncnc2c1ncn2[C@@H]1O[C@H](COP(=O)(O)OP(O)(O)=S)[C@@H](O)[C@H]1O [ADPβS] | 44 | inhibit growth |  |  |  | 
2 | Nc1ncnc2c1ncn2[C@@H]1O[C@H](COP(O)(O)=S)[C@@H](O)[C@H]1O [AMPS] |  |  |  |  |  | effect on fiber growth (cotton fibers; 200 μM, at 7 dpa): no effect on growth; effect on fiber growth (cotton fibers; concentration not given): no change in the growth rate; also recorded: no effect on fiber growth
3 | Nc1ncnc2c1ncn2[C@@H]1O[C@H](COP(=O)(O)OP(=O)(O)OP(O)(O)=S)[C@@H](O)[C@H]1O [ATPγS] | 46 | inhibit growth |  |  |  | promotion of cotton fiber growth (cotton fibers; 30 μM, at 5 dpa (data not shown)): statistically significant levels of promotion of cotton fiber growth; growth rate of fibers (cotton fibers; 30 μM, between 5 dpa and 7 dpa (data not shown)): statistically significant increase in the growth rate; inhibition of cotton fiber growth (cotton fibers; 150 μM, at 5 dpa): Statistically significant levels of inhibition of cotton fiber growth
4 | Cc1cccc(NS(=O)(=O)c2ccc(-c3ccccc3)cc2)c1 [NGXT191] |  |  |  |  |  | increase in ATP levels outside of the growing fibers (apyrase activity): 2.1 fold; inhibition of fiber growth (cotton fibers; all three concentrations, applied at 3 dpa and 5 dpa, fibers measured at 7 dpa): statistically significant inhibition of fiber growth
5 | Cc1nc(N=Nc2ccc(S(=O)(=O)O)cc2S(=O)(=O)O)c(COP(=O)(O)O)c(C=O)c1O [PPADS] |  |  | blocked | reversed | blocked | reversal of fiber growth inhibition caused by apyrase inhibitors (cotton fibers; 250 μM PPADS in the media with highest concentration of apyrase inhibitors): returned to control levels
6 | Nc1ncnc2c1ncn2[C@@H]1O[C@H](CO)[C@@H](O)[C@H]1O [adenosine] |  |  | blocked | reversed | blocked | 

Source: US11555200B2, “Regulation of cotton fiber growth by extracellular nucleotides and ectoapyrases” (priority 2008, dated 2023)
